Each structure is given as a SMILES string. Bounds are passed on as bounds.

One assay concerns the target T1, hITK enzyme (FLAG-tagged full-length hITK) (Homo sapiens, UniProt Q08881).
T1 construct: strongly expressing FLAG-tagged full-length hITK in Sf9 cells; FLAG; made in house; host or cells: Sf9 insect cells (ITK); Escherichia coli (GST-SLP76 substrate)
T1 sequence (Q08881 1-620): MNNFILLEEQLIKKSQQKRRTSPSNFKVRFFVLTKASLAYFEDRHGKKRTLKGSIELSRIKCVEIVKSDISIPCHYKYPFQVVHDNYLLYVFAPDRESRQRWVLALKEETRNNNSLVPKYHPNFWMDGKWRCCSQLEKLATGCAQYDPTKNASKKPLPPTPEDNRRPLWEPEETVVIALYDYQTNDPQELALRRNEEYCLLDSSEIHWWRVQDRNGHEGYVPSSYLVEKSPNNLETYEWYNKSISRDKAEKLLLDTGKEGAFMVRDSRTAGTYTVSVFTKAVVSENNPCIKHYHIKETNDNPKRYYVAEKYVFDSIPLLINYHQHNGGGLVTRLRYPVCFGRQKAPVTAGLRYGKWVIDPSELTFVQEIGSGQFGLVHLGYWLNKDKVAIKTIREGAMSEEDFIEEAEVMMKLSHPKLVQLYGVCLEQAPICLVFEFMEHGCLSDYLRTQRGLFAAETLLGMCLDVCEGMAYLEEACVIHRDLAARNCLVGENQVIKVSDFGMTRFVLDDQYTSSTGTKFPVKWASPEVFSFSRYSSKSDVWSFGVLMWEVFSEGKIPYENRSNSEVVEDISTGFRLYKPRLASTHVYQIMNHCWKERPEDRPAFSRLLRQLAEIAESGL
Kind of assay: ITK inhibitory activity (HTRF kinase assay, biotinylated GST-SLP76 substrate). Type of assay: biochemical. The following applies: ATP concentration of the substrate solution 6 μmol/L (Examples 380 and 381). On the procedure: (1) Preparation of hITK Enzyme
hITK enzyme was prepared by strongly expressing FLAG-tagged full-length hITK in Sf9 cells, and purifying same by anti-FLAG antibody column.
(2) Preparation of biotinylated GST-SLP76
Biotinylated GST-SLP76 was prepared by strongly expressing GST-tagged SLP76 (aa95-175) in Escherichia coli, purifying same by glutathion sepharose column and biotinylating same.
(3) Preparation of Solution
(i) buffer for dilution: 20 mmol/L 3-(N-morpholino)propanesulfonic acid (pH 7.0) (DOJINDO LABORATORIES), 10 mmol/L magnesium chloride (Sigma-Aldrich Corporation), 1 mmol/L dithiothreitol (Nacalai Tesque, Inc.), 0.1% gelatin (Sigma-Aldrich Corporation)
(ii) substrate solution: 0.2 μg/mL biotinylated GST-SLP76, 100 μmol/L ATP (Sigma-Aldrich Corporation), prepared with buffer for dilution
(iii) test compound solution: test compound, 50% dimethyl sulfoxide (DMSO), prepared with buffer for dilution
(iv) enzyme solution: 50 ng/mL hITK enzyme, prepared with buffer for dilution
(v) control solution: solution after removal of test compound from the mixture of the above-mentioned (i), (ii) and (iii)
(vi) blank solution: solution after removal of ATP from the mixture of the above-mentioned (i), (ii) and (iii)
(vii) detection buffer: 0.1 μg/mL Anti-Phosphotyrosine (PT66)-Cryptate (Cisbio), 2.5 μg/mL streptavidin-binding XL665 (Cisbio), 50 mmol/L 4-(2-hydroxyethyl)-1-piperazineethanesulfonic acid (pH 7.4) (Nacalai Tesque, Inc.), 30 mmol/L EDTA (NipponGene), 0.1% TritonX (Sigma-Aldrich Corporation), 200 mmol/L potassium fluoride (Wako Pure Chemical Industries, Ltd.), 0.05% bovine serum albumin (Sigma-Aldrich Corporation) (4) Measurement of ITK Inhibitory Activity
A substrate solution (25 μL/well), a test compound solution (5 μL/well) and an enzyme solution (20 μL/well) were added into 96 well half-area white plate (plate, Corning Incorporated 3642) to start a kinase reaction. The plate was stood still at room temperature for 10 min. Then, a detection buffer (50 μL/well) was added to the plate. After 2 hr from the addition of the detection buffer, fluorescence intensity at 620 nm (excited at 337 nm), and fluorescence intensity at 665 nm ([…]) were measured by a fluorescence microplate reader.
The Ratio (fluorescence intensity at 665 nm/fluorescence intensity at 620 nm×10000) of each test compound was calculated from the measured fluorescence intensity. Simultaneously, the measurement was performed using a blank solution and a control solution, and % of control value of each test compound was calculated from the following formula. % of control=(Ratio of test compound−Ratio of blank)/(Ratio of control−Ratio of blank)×100 ITK inhibitory rate (%)=100−(% of control)
The IC50 value was calculated from the test compound concentrations at 2 points sandwiching 50% ITK inhibitory rate.
In the test for the compounds of Examples 380 and 381, the ATP concentration of the substrate solutions was 6 μmol/L.
In general terms: TR-FRET usually uses a lanthanide donor and a delayed reading to cut background.
What is called IC50 is the midpoint of a concentration-inhibition curve. Take `CC(NCCOCC(=O)O)C(=O)N(C)c1ccc2cc(-c3n[nH]c4c3CCC(C)(C)C4)[nH]c2c1` (centres unmarked) [Example 380]: the IC50 was determined as 2 nM.

`C[C@H](C(=O)N(C)c1ccc2cc(-c3n[nH]c4c3CCC(C)(C)C4)[nH]c2c1)N1CCOCC1` [Example 381] came in with a 50% inhibitory concentration (IC50) of 2 nM.

The assay is the same for the next values; noted with them: IC50 calculated from the 2 test compound concentrations sandwiching 50% ITK inhibitory rate.
`CN(C(=O)CN1CCC(C)(C)CC1=O)c1ccc2cc(-c3n[nH]c4c3CCC(C)(C)C4)[nH]c2c1` [Example 189]: the IC50 was 1 nM.

Regarding `COCC(=O)N(CCO)c1ccc2cc(-c3n[nH]c4c3CCC(C)(C)C4)[nH]c2c1` [Example 213], the IC50 is under 3 nM.

With `CCN(C(=O)CN1C(=O)COC[C@@H]1C)c1ccc2cc(-c3n[nH]c4c3CCC(C)(C)C4)[nH]c2c1` [Example 271], the IC50 is 3 nM.

Take `CC(C(=O)N(C)c1ccc2cc(-c3n[nH]c4c3CCC(C)(C)C4)[nH]c2c1)N(C)C(=O)OC(C)(C)C` (centres unmarked) [Example 195]: the half-inhibitory concentration (IC50) was 20 nM.

As for `COC1CCN(C(C)C(=O)N(C)c2ccc3cc(-c4n[nH]c5c4CCC(C)(C)C5)[nH]c3c2)CC1` (centres unmarked) [Example 113], the IC50 is 9 nM.

Regarding `CC(C)CC(=O)N(C)c1ccc2cc(-c3n[nH]c4c3CCC(C)(C)C4)[nH]c2c1` [Example 40], the IC50 is 6 nM.

Turning to `CC(C(=O)N(CCO)c1ccc2cc(-c3n[nH]c4c3CCC(C)(C)C4)[nH]c2c1)C1CCOCC1` (centres unmarked) [Example 242], the IC50 was 3 nM.

For the compound `CN(C(=O)[C@@H]1CCC(=O)N1C)c1ccc2cc(-c3n[nH]c4c3CCC(C)(C)C4)[nH]c2c1` [Example 151], the half-maximal inhibitory concentration (IC50) is 3 nM.

As for `CC(N)C(=O)N(C)c1ccc2cc(-c3n[nH]c4c3CCC(C)(C)C4)[nH]c2c1` (centres unmarked) [Example 377], the half-inhibitory concentration (IC50) is 6 nM.

With `CN(C(=O)C(=O)c1ccccc1)c1ccc2cc(-c3n[nH]c4c3CCC(C)(C)C4)[nH]c2c1` [Example 57], the concentration for half-maximal inhibition (IC50) is 17 nM.

With `CN(C(=O)CC1CCCO1)c1ccc2cc(-c3n[nH]c4c3CCC(C)(C)C4)[nH]c2c1` (centres unmarked) [Example 71], the 50% inhibitory concentration (IC50) is under 3 nM.

As for `COCC(=O)N(C)c1ccc2cc(-c3n[nH]c4c3CC(OC)CC4)[nH]c2c1` (centres unmarked) [Example 369], the concentration for half-maximal inhibition (IC50) is 207 nM.

For `COCC(=O)N(C)c1ccc2cc(-c3n[nH]c4c3CCCC4)[nH]c2c1` [Example 352], the half-inhibitory concentration (IC50) was 37 nM.

For the compound `CCN(C(=O)CN1CC(C)(C)OCC1=O)c1ccc2cc(-c3n[nH]c4c3CCC(C)(C)C4)[nH]c2c1` [Example 277], the IC50 is 1 nM.

Take `CO[C@H]1CC[C@@H](C(=O)N(C)CC(=O)N(C)c2ccc3cc(-c4n[nH]c5c4CCC(C)(C)C5)[nH]c3c2)CC1` [Example 194]: the IC50 was 2 nM.

As to `CCC(C(=O)N(C)c1ccc2cc(-c3n[nH]c4c3CCC(C)(C)C4)[nH]c2c1)N1CCOCC1` (centres unmarked) [Example 129], the half-maximal inhibitory concentration (IC50) was 5 nM.

For the compound `CC1(C)CCc2c(-c3cc4cc(C(=O)NCCO)ccc4[nH]3)n[nH]c2C1` [Example 303], the half-maximal inhibitory concentration (IC50) was 33 nM.

In the case of `CN(C(=O)C1CCCCC1)c1ccc2cc(-c3n[nH]c4c3CCC(C)(C)C4)[nH]c2c1` [Example 124], the concentration for half-maximal inhibition (IC50) was 12 nM.

Consider `CC1(C)CCc2c(-c3cc4ccc(N5CCCC5=O)cc4[nH]3)n[nH]c2C1` [Example 210], for which the half-inhibitory concentration (IC50) was 36 nM.

For the compound `CN(C(=O)CC(C)(C)O)c1ccc2cc(-c3n[nH]c4c3CCC(C)(C)C4)[nH]c2c1` [Example 69], the IC50 is 4 nM.

With `CCC(O)C(=O)N(C)c1ccc2cc(-c3n[nH]c4c3CCC(C)(C)C4)[nH]c2c1` (centres unmarked) [Example 49], the IC50 is 3 nM.

Take `CC(C(=O)N(C)c1ccc2cc(-c3n[nH]c4c3CCC(C)(C)C4)[nH]c2c1)N1CCC[C@@H](O)C1` (some centres unmarked) [Example 112]: the IC50 was 7 nM.

Consider `CCN(CC)C(=O)c1ccc2[nH]c(-c3n[nH]c4c3CCC(C)(C)C4)cc2c1` [Example 330], for which the IC50 is 80 nM.

As to `CN(C(=O)C1CCOC1(C)C)c1ccc2cc(-c3n[nH]c4c3CCC(C)(C)C4)[nH]c2c1` (centres unmarked) [Example 201], the 50% inhibitory concentration (IC50) was 10 nM.

With `CC(C)C(=O)N(C)c1ccc2cc(-c3n[nH]c4c3CCC(C)(C)C4)[nH]c2c1` [Example 39], the 50% inhibitory concentration (IC50) is 4 nM.

Regarding `COc1nnc(NC(=O)c2ccc3[nH]c(-c4n[nH]c5c4CCC(C)(C)C5)cc3c2)s1` [Example 325], the IC50 is 246 nM.

`CN(C(=O)COc1ccncc1)c1ccc2cc(-c3n[nH]c4c3CCC(C)(C)C4)[nH]c2c1` [Example 73]: the IC50 was under 3 nM.

As to `CN(C(=O)C(C)(C)CO)c1ccc2cc(-c3n[nH]c4c3CCC(C)(C)C4)[nH]c2c1` [Example 76], the IC50 was 4 nM.

With `CC(CO)NC(=O)c1ccc2cc(-c3n[nH]c4c3CCC(C)(C)C4)[nH]c2c1` (centres unmarked) [Example 20], the IC50 was 47 nM.

Take `COCCN(C(=O)CN1CCCCC1=O)c1ccc2cc(-c3n[nH]c4c3CCC(C)(C)C4)[nH]c2c1` [Example 287]: the IC50 is 1 nM.

With `CCN(c1ccc2cc(-c3n[nH]c4c3CCC(C)(C)C4)[nH]c2c1)C(=O)[C@H]1CC[C@@H](O)CC1` [Example 258], the IC50 is 4 nM.

As to `CC1(C)CCc2c(-c3cc4cc(C(=O)NCc5nnn[nH]5)ccc4[nH]3)n[nH]c2C1` [Example 317], the IC50 is 21 nM.

As for `CN(C(=O)COc1ccccc1)c1ccc2cc(-c3n[nH]c4c3CCC(C)(C)C4)[nH]c2c1` [Example 45], the concentration for half-maximal inhibition (IC50) is under 3 nM.

As for `CC[C@@H](C(=O)N(C)c1ccc2cc(-c3n[nH]c4c3CCC(C)(C)C4)[nH]c2c1)N1CCOCC1` [Example 190], the IC50 is 4 nM.

As for `CCN(C(=O)COC)c1ccc2cc(-c3n[nH]c4c3CCC(C)(C)C4)[nH]c2c1` [Example 207], the half-inhibitory concentration (IC50) is 4 nM.

In the case of `COCC(=O)N(C)c1ccc2cc(-c3n[nH]c4c3CCC(C)C4)[nH]c2c1` (centres unmarked) [Example 356], the IC50 is 9 nM.

Take `CC1(C)CCc2c(-c3cc4ccc(N(CCO)C(=O)C5CCOCC5)cc4[nH]3)n[nH]c2C1` [Example 236]: the IC50 was 6 nM.

Consider `CCC(=O)N(C)CC(=O)N(C)c1ccc2cc(-c3n[nH]c4c3CCC(C)(C)C4)[nH]c2c1` [Example 125], for which the IC50 was 1 nM.

As for `CC1(C)CCc2c(-c3cc4ccc(N(CCO)C(=O)C(O)C5CCCOC5)cc4[nH]3)n[nH]c2C1` (centres unmarked) [Example 246], the half-inhibitory concentration (IC50) was 7 nM.

As for `CC(C(=O)N(CCO)c1ccc2cc(-c3n[nH]c4c3CCC(C)(C)C4)[nH]c2c1)C1CCCCC1` (centres unmarked) [Example 241], the IC50 was 23 nM.

In the case of `COC1(C)CCN(c2ccc3cc(-c4n[nH]c5c4CCC(C)(C)C5)[nH]c3c2)C1=O` (centres unmarked) [Example 243], the IC50 is 24 nM.

As to `CN(C(=O)COc1ccccc1)c1ccc2cc(-c3n[nH]c4c3CCCC4)[nH]c2c1` [Example 362], the half-maximal inhibitory concentration (IC50) is 12 nM.

`CN(C(=O)[C@@H]1CCCN1C)c1ccc2cc(-c3n[nH]c4c3CCC(C)(C)C4)[nH]c2c1` [Example 148]: the IC50 was 19 nM.

For `CC1(C)CCc2c(-c3cc4cc(C(=O)NC(C)(C)C(=O)OC(C)(C)C)ccc4[nH]3)n[nH]c2C1` [Example 327], the IC50 is 132 nM.

Take `CC(C)OC(CO)C(=O)N(C)c1ccc2cc(-c3n[nH]c4c3CCC(C)(C)C4)[nH]c2c1` (centres unmarked) [Example 159]: the IC50 was 7 nM.

These data come from US8299070B2, “Indole compounds and pharmaceutical use thereof” (Japan Tobacco Inc., priority 2009, dated 2012).
